In one assay the test system is CD40. Nature of the assay: Flow cytometry of CD40 on D2SC/1 DC line after CD40L and inhibitors. The assay is classed as cell-based. The method, then: FIG. 8A-FIG. 8C show CD40L downregulates and reduces the signaling capacity of CD40. FIG. 8A provides two graphs showing endocytosis inhibition reduces CD40 downregulation. D2SC/1 cell lines were incubated with 250 μM cytochalasin B for 1 hour followed by a 30 min CD40L treatment. D2SC/1 cells were also treated with cytochalasin B, the DMSO solvent control, and CD40L alone. K^+-depletion of the D2SC/1 cell line was also carried out prior to CD40 surface staining and flow cytometry analysis. Only viable cells were gated for analysis. FIG. 8B provides flow cytometry analysis showing inhibition of lysosomal degradation enhances intracellular CD40 levels. D2SC/1 cell lines were incubated with 0.5 μM bafilomycin A inhibitor for 1 hour followed by intracellular staining for CD40 (Total CD40). Total CD40 is compared to surface CD40 fluorescence. FIG. 8C is a graph showing inhibition of endocytosis intensifies the CD40 activation signal in DC Lines. Staining and analysis of surface H-2K^d.
To initially investigate the potential downregulation of surface CD40 upon ligand engagement, flow cytometric analysis of DC surface expression of CD40 was monitored in the presence and absence of CD40L.

The next assay concerns RelB. The assay is described as follows: Nuclear translocation of RelB by western blot of nuclear lysates of iCD40 D2SC/1 DCs, with pulse-chase. The assay is classed as cell-based. The following applies: pulse-chase experiments. The source says:
FIG. 2A-FIG. 2F show inducible CD40 initiates a potent NFkB signal in DCs. FIG. 2A is a photograph of an anti-HA Western Blot Analysis of iCD40 D2SC/1 DC Clones. FIG. 2B is a photograph of anti-HA Immunofluorescence of D2SC/1.Hi (lt) and D2SC/1 (rt) FIG. 2C is a graph of results of an NFκB-SEAP Reporter Assay. FIG. 2D is a graph of results and a photograph that show induction of RelB and Sp1 in D2SC/1.Hi by AP20187. FIG. 2E is a graph of results and a photograph of results of assays where maximum concentrations of each agent (based on titrations) were co-incubated with iCD40 D2SC/1 for 24 hrs and nuclear lysates were analyzed by western blot.
Reporter assays were carried out in these cell lines to determine whether iCD40 could also induce NFκB activation in DCs. […] Several studies have identified that the RelB subunit of NFκB plays a significant role in the DC maturation program (Pettit 1997; Martin 2003). […] Therefore, as a surrogate marker for DC activation, the nuclear translocation of RelB was analyzed by western blot in iCD40 DCs exposed to log dilutions of AP20187 (FIG. 2D).
DC activation potency of iCD40 was compared with other traditional DC maturation stimuli, such as LPS, TNFα, anti-CD40 mAb, and CD40L. […]

For assay [1], the system named is syngeneic lymph node (LN)-derived cells. Nature of the assay: Mixed lymphocyte reaction, 3H-thymidine T cell proliferation with mitomycin C-treated D2SC/1 DCs. The assay is classed as cell-based. The conditions noted are these: purified CD8+ T cells from LN tissue (>95%), no CD4+ help. The method, then: The initial approach to the determination of the T cell stimulation capacity of iCD40 DCs involved the co-incubation of mitomycin C-treated D2SC/1 DCs with syngeneic lymph node (LN)-derived cells in vitro. This mixed lymphocyte reaction (MLR) assay measured the ability of iCD40 DCs to induce a syngeneic T cell proliferative response to bovine serum-derived xenogeneic antigens (FIG. 3C). […] In order to investigate whether this T cell activation effect was dependent on CD4+ T cell help, CD8+ T cells from LN tissue (>95%) were purified and the ^3H-thymidine-based proliferation assay was repeated (FIG. 3C). […] Furthermore, the CD4+-depletion data inferred that the iCD40 receptor may be capable of substituting for CD4+ T cell help in DC-based vaccination strategies.

A further assay has as its system IL-12. The assay is described as follows: Intracellular cytokine staining of IL-12 in BMDCs. The assay is classed as cell-based, C57BL/6 mice. The conditions noted are these: decreased thereafter. The text has this: A viral region E1 and E3-deleted, replication-deficient type 5 adenoviral vector was engineered to express both iCD40 and EGFP under the control of the CMV early/immediate promoter/enhancer. Ad-iCD40-GFP successfully transduced and expressed the iCD40 transgene, as well as the EGFP marker, in purified BMDCs (FIG. 5A,B). […] The effects of Ad-iCD40-GFP on BMDCs were studied by using intracellular cytokine staining to evaluate DC expression of the TH1-polarizing cytokine, IL-12. The results confirmed numerous previous reports that an empty adenoviral vector can contribute to background fluorescence readings by stimulating the production of low levels of this cytokine (FIG. 5D) (Korst 2002).

The next assay relates to iCD40-IICD40 DC lines. Nature of the assay: iCD40-IICD40 double-stable D2SC/1 DC lines, western blot and H-2K^d surface expression. The assay is classed as cell-based. The following applies: IICD40-expressing lines vs empty vector control. The text has this:
FIG. 9A-FIG. 9D show iCD40 circumvents negative feedback inhibition by the Type II CD40 (IICD40) isoform. FIG. 9A is a schematic of Type I, II, and iCD40. […] The type II CD40 isoform was rt-PCR amplified from purified BMDCs, subcloned into a pEF-1α-driven myc-tagged ZeoR vector, and transfected into iCD40-expressing D2SC/1 cells. Double clonal stable lines were generated by G418/zeocin selection and limiting dilution. Resulting lines were screened for IICD40 expression by anti-myc western blot and analyzed for iCD40 expression by anti-HA western blots. FIG. 9C is a graph showing that Type II CD40 down-regulates surface expression of Type I CD40 in DC Lines. Empty vector control and IICD40-expressing D2SC/1 lines were analyzed for their surface expression of CD40 by flow cytometry. Only viable cells were gated for analysis. FIG. 9D provides two graphs showing the Type II CD40 isoform downmodulates Type I CD40 signaling, but not iCD40 signaling. iCD40-IICD40-expressing D2SC/1 cell lines were cultured in the presence of increasing concentrations of CD40L and the AP20187 drug followed by surface staining and flow analysis of H-2K^d. […]
To expand upon these findings, the effects of CD40L and AP20187 titrations on each of the IICD40 lines were analyzed based on the hypothesis that IICD40-mediated type I CD40 downregulation should blunt the DC response to CD40L but not to AP20187 (FIG. 9D).

For `C=C1[C@@H](C)[C@H]2[C@H](Cc3ccccc3)NC(=O)[C@]23OC(=O)/C=C/[C@H](O)CCC[C@@H](C)C/C=C/[C@H]3[C@@H]1O` [cytocholasin B], the “sensitivity of CD40L-induced CD40 downregulation to inhibitor” value with CD40 (endocytosis inhibitor) is on record as “sensitive”. TNFα: the “duration of RelB induction” value with RelB came to 24 h. Consider balifomycin A1, for which, in the assay on CD40 (endosomal H^+ATPase inhibitor), the “total CD40 levels (intracellular staining)” value is reported as “enhanced total CD40 levels”. For the molecule lipopolysaccharide [LPS], the “CD8+ T cell proliferation” value in assay [1] is listed as “failed to circumvent the requirement for CD4+ T cell-derived helper signals”. In the assay with IL-12, the “time of peak IL-12p70/p40 synthesis” value amounted to 8 h.

B1: CD40L: CD40 ligand (protein)
chain: MIETYNQTSPRSAATGLPISMKIFMYLLTVFLITQMIGSALFAVYLHRRLDKIEDERNLHEDFVFMKTIQRCNTGERSLSLLNCEEIKSQFEGFVKDIMLNKEETKKENSFEMQKGDQNPQIAAHVISEASSKTTSVLQWAEKGYYTMSNNLVTLENGKQLTVKRQGLYYIYAQVTFCSNREASSQAPFIASLCLKSPGRFERILLRAANTHSSAKPCGQQSIHLGGVFELQPGASVFVNVTDPSQVSHGTGFTSFGLLKL
B1: in the assay on CD40 (D2SC/1 DC line, rapid kinetics), the “surface CD40 mean fluorescence intensity” value was “promptly reduced the mean fluorescence intensity of CD40”. Besides, the “time of peak IL-12p70/p40 synthesis” value with IL-12 came to 8 h. Moreover, the “MHC class I H-2K^d surface expression dose-response” value in the assay on iCD40-IICD40 DC lines is listed as “elevated amounts of CD40L were required to initiate signaling through the CD40 axis”.

The values above are taken from patent US10420824B2, “Induced activation in dendritic cells” (BAYLOR COLLEGE OF MEDICINE, priority 2003, dated 2019).
